“And” between values parts separate entries of the source, which are not always exact repeats. Identical values can stand only once.
Molecular target: NAMPT enzyme (Homo sapiens (Human), UniProt P43490)
Assay: Enzyme Assay and NMN Detection (NAMPT reaction, fluorescence detection of NMN)
Type: biochemical
Settings: Table B-2; NAMPT activation, NMN formation
Procedure: NAMPT reaction was performed in 50 mM HEPES, pH 7.5, containing 5 mM MgCl2, 0.1% Prionex, 0.005% Tween 20, and 1 mM TCEP at room temperature in Greiner 384-well black polypropylene plates. The concentration of substrates and enzymes in the final assay were as follows: ATP (120 uM), nicotinamide (5 uM), phosphoribosylpyrophosphate (6.25 uM), NAMPT enzyme (16 nM), pyrophosphatase (0.04 U/ml) in the final reaction volume 6 uL. Following 2 h incubation the reaction was stopped by addition 2.5 ul 20% acetophenone in dimethyl sulfoxide (DMSO) and 2.5 ul 2 MKOH. Plates were centrifuges and added with 10.5 ul 88% formic acid. The fluorescence (ex380/em460) was measured following another short incubation and 30 min incubation. The increased concentration of NMN was determined from a calibration curve obtained at the time of experiment.

Sequence of NAMPT enzyme (P43490 whole entry, species assumed): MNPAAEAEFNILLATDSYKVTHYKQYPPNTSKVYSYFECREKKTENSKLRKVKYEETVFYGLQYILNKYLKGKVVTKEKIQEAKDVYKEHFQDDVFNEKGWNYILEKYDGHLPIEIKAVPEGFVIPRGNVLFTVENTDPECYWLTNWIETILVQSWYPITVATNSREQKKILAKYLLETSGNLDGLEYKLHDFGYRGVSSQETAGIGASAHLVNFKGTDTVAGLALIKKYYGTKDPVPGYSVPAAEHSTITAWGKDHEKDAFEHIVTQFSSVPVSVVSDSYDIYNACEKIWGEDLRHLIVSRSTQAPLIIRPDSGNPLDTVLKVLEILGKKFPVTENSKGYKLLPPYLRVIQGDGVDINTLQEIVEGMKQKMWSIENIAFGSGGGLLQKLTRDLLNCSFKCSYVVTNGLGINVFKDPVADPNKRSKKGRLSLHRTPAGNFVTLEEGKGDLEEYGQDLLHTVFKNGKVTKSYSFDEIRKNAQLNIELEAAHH

Compound | EC50 [nM]
O=C(NCc1ccncc1)Nc1ccc(NS(=O)(=O)Cc2ccccc2Cl)cc1 [1-(2-chlorophenyl)-N-(4-(3-(pyridin-4-ylmethyl)ureido)phenyl)methanesulfonamide] | < 100
O=C(NCc1ccncc1)Nc1cccc(S(=O)(=O)N2CCOCC2)c1 [1-(3-(morpholinosulfonyl)phenyl)-3-(pyridin-4-ylmethyl)urea] | > 20000
O=C(NCc1ccncc1)Nc1ccc(NS(=O)(=O)Cc2cccc(Cl)c2)cc1 [1-(3-chlorophenyl)-N-(4-(3-(pyridin-4-ylmethyl)ureido)phenyl)methanesulfonamide] | < 100
CN1CCN(C(=O)c2ccc(NC(=O)NCc3ccncc3)cc2)CC1 [1-(4-(4-Methylpiperazine-1-carbonyl)phenyl)-3-(pyridin-4-ylmethyl)urea] | 5000 to 20000
O=C(NCc1ccncc1)Nc1ccc(C(=O)N2CC3CCC(C2)O3)cc1 [1-(4-(8-Oxa-3-azabicyclo[3.2.1]octane-3-carbonyl)phenyl)-3-(pyridin-4-ylmethyl)urea] | 100 to 2000

Same assay, conditions: Table B-4; NAMPT activation, NMN formation

Compound | EC50
O=C(NCc1cn[nH]c1)Nc1ccc(S(=O)(=O)c2ccccc2-c2cccnc2)cc1 [1-(1H-Pyrazol-4-ylmethyl)-3-[4-(2-pyridin-3-yl-benzenesulfonyl)-phenyl]-urea] | 100 to 2000 nM
O=C(NCc1cn[nH]c1)Nc1ccc(S(=O)(=O)c2ccccc2-c2ccncc2)cc1 [1-(1H-Pyrazol-4-ylmethyl)-3-[4-(2-pyridin-4-yl-benzenesulfonyl)-phenyl]-urea] | 100 to 2000 nM
O=C(NCc1cn[nH]c1)Nc1ccc(S(=O)(=O)c2ccccc2OC(F)(F)F)cc1 [1-(1H-Pyrazol-4-ylmethyl)-3-[4-(2-trifluoromethoxy-benzenesulfonyl)-phenyl]-urea] | < 100 nM
O=C(NCc1cn[nH]c1)Nc1ccc(S(=O)(=O)c2ccccc2C(F)(F)F)cc1 [1-(1H-Pyrazol-4-ylmethyl)-3-[4-(2-trifluoromethyl-benzenesulfonyl)-phenyl]-urea] | 100 to 2000 nM
O=C(NCc1cn[nH]c1)Nc1ccc(S(=O)(=O)c2cccc(OC(F)(F)F)c2)cc1 [1-(1H-Pyrazol-4-ylmethyl)-3-[4-(3-trifluoromethoxy-benzenesulfonyl)-phenyl]-urea] | < 100 nM
Cc1cccc(-c2csc(Nc3ccc(NC(=O)NCc4cn[nH]c4)cc3)n2)c1 [1-(1H-Pyrazol-4-ylmethyl)-3-[4-(4-m-tolyl-thiazol-2-ylamino)-phenyl]-urea] | 100 to 2000 nM
Cc1ccccc1-c1csc(Nc2ccc(NC(=O)NCc3cn[nH]c3)cc2)n1 [1-(1H-Pyrazol-4-ylmethyl)-3-[4-(4-o-tolyl-thiazol-2-ylamino)-phenyl]-urea] | 100 to 2000 nM
Cc1ccc(-c2csc(Nc3ccc(NC(=O)NCc4cn[nH]c4)cc3)n2)cc1 [1-(1H-Pyrazol-4-ylmethyl)-3-[4-(4-p-tolyl-thiazol-2-ylamino)-phenyl]-urea] | 2000 to 5000 nM
O=C(NCc1cn[nH]c1)Nc1ccc(S(=O)(=O)c2ccc(OC(F)(F)F)cc2)cc1 [1-(1H-Pyrazol-4-ylmethyl)-3-[4-(4-trifluoromethoxy-benzenesulfonyl)-phenyl]-urea] | 100 to 2000 nM
O=C(NCc1cn[nH]c1)Nc1ccc(S(=O)(=O)c2cccnc2)cc1 [1-(1H-Pyrazol-4-ylmethyl)-3-[4-(pyridine-3-sulfonyl)-phenyl]-urea] | 100 to 2000 nM
O=C(NCc1cn[nH]c1)Nc1ccc(S(=O)(=O)c2ncccn2)cc1 [1-(1H-Pyrazol-4-ylmethyl)-3-[4-(pyrimidine-2-sulfonyl)-phenyl]-urea] | 2000 to 5000 nM
O=C(NCc1cn[nH]c1)Nc1ccc(S(=O)(=O)c2nccs2)cc1 [1-(1H-Pyrazol-4-ylmethyl)-3-[4-(thiazole-2-sulfonyl)-phenyl]-urea] | 2000 to 5000 nM and 100 to 2000 nM
Cc1ccccc1S(=O)(=O)c1ccc(NC(=O)NCc2cn[nH]c2)cc1 [1-(1H-Pyrazol-4-ylmethyl)-3-[4-(toluene-2-sulfonyl)-phenyl]-urea] | < 100 nM
Cc1cccc(S(=O)(=O)c2ccc(NC(=O)NCc3cn[nH]c3)cc2)c1 [1-(1H-Pyrazol-4-ylmethyl)-3-[4-(toluene-3-sulfonyl)-phenyl]-urea] | 100 to 2000 nM
Cc1ccc(S(=O)(=O)c2ccc(NC(=O)NCc3cn[nH]c3)cc2)cc1 [1-(1H-Pyrazol-4-ylmethyl)-3-[4-(toluene-4-sulfonyl)-phenyl]-urea] | 100 to 2000 nM
O=C(NCc1cn[nH]c1)Nc1ccc(S(=O)(=O)C2CCN(C3CCOCC3)CC2)cc1 [1-(1H-Pyrazol-4-ylmethyl)-3-{4-[1-(tetrahydro-pyran-4-yl)-piperidine-4-sulfonyl]-phenyl}-urea] | 100 to 2000 nM

Same assay, conditions: Table B-5; NAMPT activation, NMN formation

Compound | EC50 [nM]
O=C(NCc1cnco1)Nc1ccc(NS(=O)(=O)Cc2ccccc2Cl)cc1 [1-(2-Chlorophenyl)-N-(4-(3-(oxazol-5-ylmethyl)ureido)phenyl)methanesulfonamide] | < 100
O=C(NCc1cnco1)Nc1ccc(NS(=O)(=O)Cc2ccc(Cl)c(Cl)c2)cc1 [1-(3,4-Dichlorophenyl)-N-(4-(3-(oxazol-5-ylmethyl)ureido)phenyl)methanesulfonamide] | < 100
O=C(NCc1cnco1)Nc1ccc(NS(=O)(=O)Cc2cccc(Cl)c2)cc1 [1-(3-Chlorophenyl)-N-(4-(3-(oxazol-5-ylmethyl)ureido)phenyl)methanesulfonamide] | < 100
Cc1ccc2c(c1)c(-c1ccc(NC(=O)NCc3cnco3)cc1)nn2C [1-(4-(1,5-Dimethyl-1H-indazol-3-yl)phenyl)-3-(oxazol-5-ylmethyl)urea] | 5000 to 20000
Cc1cccc2c(-c3ccc(NC(=O)NCc4cnco4)cc3)nn(C)c12 [1-(4-(1,7-Dimethyl-1H-indazol-3-yl)phenyl)-3-(oxazol-5-ylmethyl)urea] | 2000 to 5000
O=C(NCc1cnco1)Nc1ccc(-c2ncc(Cc3ccccc3)s2)cc1 [1-(4-(5-Benzylthiazol-2-yl)phenyl)-3-(oxazol-5-ylmethyl)urea] | 5000 to 20000
Cn1nc(-c2ccc(NC(=O)NCc3cnco3)cc2)c2cc(Cl)ccc21 [1-(4-(5-Chloro-1-methyl-1H-indazol-3-yl)phenyl)-3-(oxazol-5-ylmethyl)urea] | 100 to 2000
O=C(NCc1cnco1)Nc1ccc(S(=O)(=O)c2cn[nH]c2)cc1 [1-(4-((1H-pyrazol-4-yl)sulfonyl)phenyl)-3-(oxazol-5-ylmethyl)urea] | 100 to 2000
O=C(NCc1cnco1)Nc1ccc(S(=O)(=O)c2ccccc2F)cc1 [1-(4-((2-Fluorophenyl)sulfonyl)phenyl)-3-(oxazol-5-ylmethyl)urea] | 100 to 2000
COc1ccccc1S(=O)(=O)c1ccc(NC(=O)NCc2cnco2)cc1 [1-(4-((2-Methoxyphenyl)sulfonyl)phenyl)-3-(oxazol-5-ylmethyl)urea] | 100 to 2000
O=C(NCc1cnco1)Nc1ccc(S(=O)(=O)c2cccc(Cl)c2)cc1 [1-(4-((3-Chlorophenyl)sulfonyl)phenyl)-3-(oxazol-5-ylmethyl)urea] | < 100
O=C(NCc1cnco1)Nc1ccc(S(=O)(=O)c2cccc(F)c2)cc1 [1-(4-((3-Fluorophenyl)sulfonyl)phenyl)-3-(oxazol-5-ylmethyl)urea] | 100 to 2000

Same assay, conditions: Table B-6; NAMPT activation, NMN formation

Compound | EC50 [nM]
O=C(NCc1cn[nH]c1)Nc1ccc(S(=O)(=O)C2CCN(C3CCOCC3)CC2)cc1 [1-(1H-Pyrazol-4-ylmethyl)-3-{4-[1-(tetrahydro-pyran-4-yl)-piperidine-4-sulfonyl]-phenyl}-urea] | 100 to 2000
N#Cc1cc(NC(=O)NCc2ccncc2)ccc1S(=O)(=O)c1cc(F)cc(F)c1 [1-(3-Cyano-4-((3,5-difluorophenyl)sulfonyl)phenyl)-3-(pyridin-4-ylmethyl)urea] | 100 to 2000
Cc1cccc2c1c(-c1ccc(NC(=O)NCc3ccncc3)cc1)nn2C [1-(4-(1,4-Dimethyl-1H-indazol-3-yl)phenyl)-3-(pyridin-4-ylmethyl)urea] | 100 to 2000
Cc1ccc2c(c1)c(-c1ccc(NC(=O)NCc3ccncc3)cc1)nn2C [1-(4-(1,5-Dimethyl-1H-indazol-3-yl)phenyl)-3-(pyridin-4-ylmethyl)urea] | 100 to 2000
Cc1cccc2c(-c3ccc(NC(=O)NCc4ccncc4)cc3)nn(C)c12 [1-(4-(1,7-Dimethyl-1H-indazol-3-yl)phenyl)-3-(pyridin-4-ylmethyl)urea] | 100 to 2000
Cn1nc(-c2ccc(NC(=O)NCc3ccncc3)cc2)c2ccncc21 [1-(4-(1-Methyl-1H-pyrazolo[3,4-c]pyridin-3-yl)phenyl)-3-(pyridin-4-ylmethyl)urea] | 100 to 2000
O=C(NCc1ccncc1)Nc1ccc(-c2ncc(Cc3ccccc3)s2)cc1 [1-(4-(5-Benzylthiazol-2-yl)phenyl)-3-(pyridin-4-ylmethyl)urea] | 5000 to 20000
Cn1nc(-c2ccc(NC(=O)NCc3ccncc3)cc2)c2cc(Cl)ccc21 [1-(4-(5-Chloro-1-methyl-1H-indazol-3-yl)phenyl)-3-(pyridin-4-ylmethyl)urea] | 2000 to 5000
O=C(NCc1ccncc1)Nc1ccc(S(=O)(=O)c2cn[nH]c2)cc1 [1-(4-((1H-pyrazol-4-yl)sulfonyl)phenyl)-3-(pyridin-4-ylmethyl)urea] | 100 to 2000
COc1ccc(-c2ccccc2S(=O)(=O)c2ccc(NC(=O)NCc3ccncc3)cc2)cn1 [1-(4-((2-(6-Methoxypyridin-3-yl)phenyl)sulfonyl)phenyl)-3-(pyridin-4-ylmethyl)urea] | 5000 to 20000
O=C(NCc1ccncc1)Nc1ccc(S(=O)(=O)c2ccccc2F)cc1 [1-(4-((2-Fluorophenyl)sulfonyl)phenyl)-3-(pyridin-4-ylmethyl)urea] | 100 to 2000
O=C(NCc1ccncc1)Nc1ccc(S(=O)(=O)c2ccccc2-c2ccccc2Cl)cc1 [1-(4-((2′-Chloro-[1,l′-biphenyl]-2-yl)sulfonyl)phenyl)-3-(pyridin-4-ylmethyl)urea] | 100 to 2000
Cc1ccccc1-c1ccccc1S(=O)(=O)c1ccc(NC(=O)NCc2ccncc2)cc1 [1-(4-((2′-Methyl-[1,l′-biphenyl]-2-yl)sulfonyl)phenyl)-3-(pyridin-4-ylmethyl)urea] | 100 to 2000
